In patent US20090203800A1, “Cytostatic Composition” (priority 2008, published 2009):

Columns and labels:
Type in all cases: cell-based
Conditions in all cases: 5-FU 1.0 mg/ml
[1] = test system: human tumor xenograft BXF 1218 (Bladder); experiment: clonogenic assay (tumor colony assay)
Description: (§1) In the clonogenic assay (=tumor colony assay, TCA), inhibition of colony formation of tumor stem cells growing in soft agar is examined. Tumor stem cells, which are responsible for growth, the metastatic and infiltrative potential of a tumor, are prepared directly from human tumor xenografts growing in nude mice.
(§2) Cytostatic was tested at 6 concentrations. The highest concentration tested was 0.004%, as shown below, which was the maximum allowed concentration of the vehicle in the test set as 100% of Cytostatic. IMDM supplemented with 10% v/v saline solution was also used as a control vehicle.
(§3) Solid human tumor xenografts growing subcutaneously in serial passages in thymus aplastic nude mice (NMRI nu/nu strain,) were removed under sterile conditions, mechanically disaggregated and subsequently incubated with an enzyme cocktail consisting of collagenase type IV (41 U/ml) (Sigma), DNase I (125 U/ml) (Roche), hyaluronidase type III (100 U/ml) (Sigma) and dispase II (1.0 U/ml) (Roche) in RPMI 1640-Medium (Life Technologies) at 37° C. for 45 minutes. Cells were passed through sieves of 200 μm and 50 μm mesh size and washed twice with sterile PBS-buffer. The percentage of viable cells was determined in a Neubauer-hemocytometer using trypan blue exclusion.
(§4) The clonogenic assay was performed in a 24-well format according to a modified two-layer soft agar assay introduced by Hamburger & Salmon. The bottom layer consisted of 0.2 ml/well IMDM (Life Technologies) (supplemented with 20% (v/v) fetal calf serum (Sigma), 0.01% (w/v) gentamicin (Life Technologies) and 0.75% (w/v) agar). 2×10^4 to 4×10^4 cells were added to 0.2 ml of the same culture medium supplemented with 0.4% (w/v) agar and plated in 24-multiwell dishes onto the bottom layer. The test compound was applied by continuous exposure (drug overlay) in 0.2 ml culture medium. Every dish included six untreated control wells and drug-treated groups in triplicate at 6 concentrations. Cultures were incubated at 37° C. and 7.5% CO2 in a humidified atmosphere for 6-18 days and monitored closely for colony growth using an inverted microscope. Within this period, in vitro tumor growth led to the formation of colonies with a diameter of >50 μm. At the time of maximum colony formation, counts were performed with an automatic image analysis system (OMNICON 3600, Biosys GmbH). 24 hours prior to evaluation, vital colonies were stained with a sterile aqueous solution of 2-(4-iodophenyl)-3-(4-nitrophenyl)-5-phenyltetrazolium chloride (1 mg/ml, 100 μl/well) (Sigma).
(§5) Drug effects were expressed by the percentage of colony formation, obtained by comparison of the mean number of colonies in the treated wells with the mean colony count of the untreated controls (relative colony count expressed by the test-versus-control value, T/C-value [%]):
(§6) IC50- and IC70-values, being the drug concentrations necessary to inhibit colony formation by 50% (T/C=50%) and 70% (T/C=30%), respectively, were determined by plotting compound concentration versus relative colony count. Mean IC50- and IC70-values were calculated according to the formula

[2] = test system: human tumor xenograft CXF 1103 (Colon); experiment: clonogenic assay (tumor colony assay)
Description: as §1, §2, §3, §4, §5, §6

[3] = test system: human tumor xenograft CXF 280 (Colon); experiment: clonogenic assay (tumor colony assay)
Description: as §1, §2, §3, §4, §5, §6

[4] = test system: human tumor xenograft GXF 1172 (Stomach); experiment: clonogenic assay (tumor colony assay)
Description: as §1, §2, §3, §4, §5, §6

[5] = test system: human tumor xenograft HNXF 536 (Head & neck); experiment: clonogenic assay (tumor colony assay)
Description: as §1, §2, §3, §4, §5, §6

[6] = test system: human tumor xenograft LIXF 575 (Liver); experiment: clonogenic assay (tumor colony assay)
Description: as §1, §2, §3, §4, §5, §6

[7] = test system: human tumor xenograft LXFA 289 (Lung, NSC); experiment: clonogenic assay (tumor colony assay)
Description: as §1, §2, §3, §4, §5, §6

[8] = test system: human tumor xenograft LXFA 526 (Lung, NSC); experiment: clonogenic assay (tumor colony assay)
Description: as §1, §2, §3, §4, §5, §6

[9] = test system: human tumor xenograft LXFL 1647 (Lung, NSC); experiment: clonogenic assay (tumor colony assay)
Description: as §1, §2, §3, §4, §5, §6

[10] = test system: human tumor xenograft LXFL 529 (Lung, NSC); experiment: clonogenic assay (tumor colony assay)
Description: as §1, §2, §3, §4, §5, §6

[11] = test system: human tumor xenograft LXFS 615 (Lung, SC); experiment: clonogenic assay (tumor colony assay)
Description: as §1, §2, §3, §4, §5, §6

[12] = test system: human tumor xenograft LXFS 650 (Lung, SC); experiment: clonogenic assay (tumor colony assay)
Description: as §1, §2, §3, §4, §5, §6

[13] = test system: human tumor xenograft MAXF 1322 (Breast); experiment: clonogenic assay (tumor colony assay)
Description: as §1, §2, §3, §4, §5, §6

[14] = test system: human tumor xenograft MAXF 1384 (Breast); experiment: clonogenic assay (tumor colony assay)
Description: as §1, §2, §3, §4, §5, §6

[15] = test system: human tumor xenograft MAXF 401 (Breast); experiment: clonogenic assay (tumor colony assay)
Description: as §1, §2, §3, §4, §5, §6

[16] = test system: human tumor xenograft MEXF 1539 (Melanoma); experiment: clonogenic assay (tumor colony assay)
Description: as §1, §2, §3, §4, §5, §6

[17] = test system: human tumor xenograft MEXF 514 (Melanoma); experiment: clonogenic assay (tumor colony assay)
Description: as §1, §2, §3, §4, §5, §6

[18] = test system: human tumor xenograft MEXF 989 (Melanoma); experiment: clonogenic assay (tumor colony assay)
Description: as §1, §2, §3, §4, §5, §6

[19] = test system: human tumor xenograft OVXF 550 (Ovary); experiment: clonogenic assay (tumor colony assay)
Description: as §1, §2, §3, §4, §5, §6

[20] = test system: human tumor xenograft OVXF 899 (Ovary); experiment: clonogenic assay (tumor colony assay)
Description: as §1, §2, §3, §4, §5, §6

[21] = test system: human tumor xenograft PAXF 736 (Pancreas); experiment: clonogenic assay (tumor colony assay)
Description: as §1, §2, §3, §4, §5, §6

[22] = test system: human tumor xenograft PRXF DU145 (Prostate); experiment: clonogenic assay (tumor colony assay)
Description: as §1, §2, §3, §4, §5, §6

[23] = test system: human tumor xenograft PRXF MRIH1579 (Prostate); experiment: clonogenic assay (tumor colony assay)
Description: as §1, §2, §3, §4, §5, §6

[24] = test system: human tumor xenograft PXF 1118 (Pleuramesothelioma); experiment: clonogenic assay (tumor colony assay)
Description: as §1, §2, §3, §4, §5, §6

[25] = test system: human tumor xenograft RXF 631 (Kidney); experiment: clonogenic assay (tumor colony assay)
Description: as §1, §2, §3, §4, §5, §6

[26] = test system: human tumor xenograft RXF 944LX (Kidney); experiment: clonogenic assay (tumor colony assay)
Description: as §1, §2, §3, §4, §5, §6

[27] = test system: human tumor xenograft SXF 627 (Sarcoma); experiment: clonogenic assay (tumor colony assay)
Description: as §1, §2, §3, §4, §5, §6

[28] = test system: 27 human tumor xenografts; experiment: clonogenic assay, whole test panel
Description: The antitumor efficacy of cytostatic composition as described above was evaluated in 27 human tumor xenografts in vitro using a clonogenic assay. The tumor test panel comprised 1 to 4 models of 15 different human tumor types, which were bladder cancer, colon, gastric, head and neck, liver, non small cell lung (adeno and large cell), small cell lung, mammary, ovary, pancreatic, prostate and renal cancer as well as melanoma, pleuramesothelioma, and sarcoma. The cytostatic composition was studied at 6 concentrations ranging from 0.001% to 100.0%. Antitumor effects were recorded as inhibition of colony formation in relation to untreated controls (T/C-values).
In the clonogenic assay (=tumor colony assay, TCA), inhibition of colony formation of tumor stem cells growing in soft agar is examined. […]
The clonogenic assay was performed in a 24-well format according to a modified two-layer soft agar assay introduced by Hamburger & Salmon. […] Cultures were incubated at 37° C. and 7.5% CO2 in a humidified atmosphere for 6-18 days and monitored closely for colony growth using an inverted microscope. […]
with x the specific tumor model, and n the total number of tumor models studied. If an IC50- or IC70-value could not be determined within the examined dose range (because a compound was either too active or lacked activity), the lowest or highest concentration studied was used for the calculation. […]

5-FU control, T/C [%] [1]: 2%
5-FU control, T/C [%] class [1]: +++ (+++ (T/C ≦ 10))
5-FU control, T/C [%] [2]: 10%
5-FU control, T/C [%] class [2]: +++ (+++ (T/C ≦ 10))
5-FU control, T/C [%] [3]: 21%
5-FU control, T/C [%] class [3]: ++ (++ (10 < T/C < 30))
5-FU control, T/C [%] [4]: 15%
5-FU control, T/C [%] class [4]: ++ (++ (10 < T/C < 30))
5-FU control, T/C [%] [5]: 9%
5-FU control, T/C [%] class [5]: +++ (+++ (T/C ≦ 10))
5-FU control, T/C [%] [6]: 4%
5-FU control, T/C [%] class [6]: +++ (+++ (T/C ≦ 10))
5-FU control, T/C [%] [7]: 12%
5-FU control, T/C [%] class [7]: ++ (++ (10 < T/C < 30))
5-FU control, T/C [%] [8]: 2%
5-FU control, T/C [%] class [8]: +++ (+++ (T/C ≦ 10))
5-FU control, T/C [%] [9]: 5%
5-FU control, T/C [%] class [9]: +++ (+++ (T/C ≦ 10))
5-FU control, T/C [%] [10]: 0%
5-FU control, T/C [%] class [10]: +++ (+++ (T/C ≦ 10))
5-FU control, T/C [%] [11]: 14%
5-FU control, T/C [%] class [11]: ++ (++ (10 < T/C < 30))
5-FU control, T/C [%] [12]: 0%
5-FU control, T/C [%] class [12]: +++ (+++ (T/C ≦ 10))
5-FU control, T/C [%] [13]: 0%
5-FU control, T/C [%] class [13]: +++ (+++ (T/C ≦ 10))
5-FU control, T/C [%] [14]: 4%
5-FU control, T/C [%] class [14]: +++ (+++ (T/C ≦ 10))
5-FU control, T/C [%] [15]: 4%
5-FU control, T/C [%] class [15]: +++ (+++ (T/C ≦ 10))
5-FU control, T/C [%] [16]: 0%
5-FU control, T/C [%] class [16]: +++ (+++ (T/C ≦ 10))
5-FU control, T/C [%] [17]: 4%
5-FU control, T/C [%] class [17]: +++ (+++ (T/C ≦ 10))
5-FU control, T/C [%] [18]: 0%
5-FU control, T/C [%] class [18]: +++ (+++ (T/C ≦ 10))
5-FU control, T/C [%] [19]: 33%
5-FU control, T/C [%] class [19]: + (+ (30 ≦ T/C ≦ 50))
5-FU control, T/C [%] [20]: 31%
5-FU control, T/C [%] class [20]: + (+ (30 ≦ T/C ≦ 50))
5-FU control, T/C [%] [21]: 5%
5-FU control, T/C [%] class [21]: +++ (+++ (T/C ≦ 10))
5-FU control, T/C [%] [22]: 1%
5-FU control, T/C [%] class [22]: +++ (+++ (T/C ≦ 10))
5-FU control, T/C [%] [23]: 7%
5-FU control, T/C [%] class [23]: +++ (+++ (T/C ≦ 10))
5-FU control, T/C [%] [24]: 2%
5-FU control, T/C [%] class [24]: +++ (+++ (T/C ≦ 10))
5-FU control, T/C [%] [25]: 4%
5-FU control, T/C [%] class [25]: +++ (+++ (T/C ≦ 10))
5-FU control, T/C [%] [26]: 1%
5-FU control, T/C [%] class [26]: +++ (+++ (T/C ≦ 10))
5-FU control, T/C [%] [27]: 2%
5-FU control, T/C [%] class [27]: +++ (+++ (T/C ≦ 10))
Compound: O=c1[nH]cc(F)c(=O)[nH]1 [5-FU, 5-fluorouracil]
antitumor activity of positive control of growth inhibition [28]: good antitumor activity
